Columns and labels:
[1] = system: barnyardgrass; experiment: Test B pre-/postemergence herbicide test; assay type: in vivo, Echinochloa crus-galli; details: for Plant response rating (0 to 100 scale), Barnyardgrass: 0 is no effect, preemergence
In short: (§1)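 Visual rating, 0 (no effect) to 100 (complete control), versus untreated controls after 13–15 d in greenhouse. Pre- and postemergence applications (postemergence plants 2–18 cm, 1–4 leaves); flooded paddy arm at 2-leaf stage. Compounds in non-phytotoxic solvent plus surfactant.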

[2] = system: large crabgrass; experiment: Test B pre-/postemergence herbicide test; assay type: in vivo, Digitaria sanguinalis; details: for Plant response rating (0 to 100 scale), Crabgrass, Large: 0 is no effect, preemergence
In short: (§2)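 Pre: seeds sown, then sprayed. Post: 1–4-leaf plants (2–18 cm) sprayed at the same time. Paddy: flooded, treated at 2-leaf stage. Formulation: non-phytotoxic solvent with surfactant. Greenhouse 13–15 days; visual 0–100 score relative to controls.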

[3] = system: wheat; experiment: Test B postemergence herbicide test; assay type: in vivo, Triticum aestivum; set-up: key to Wheat plant response rating: 0 = no effect, 100 = complete control
In short: (§3)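 Visual ratings, 0 (no effect) to 100 (complete control), made versus controls after 13–15 d greenhouse. Paddy plants treated at 2-leaf stage; postemergence plants at 1- to 4-leaf stage, 2–18 cm tall.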

[4] = system: rice; experiment: Test C flooded paddy test; assay type: in vivo, Oryza sativa; details: for Plant response rating, Rice: 500 g ai/ha, visual rating after 12 to 14 days
In short: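 Postemergence sprays applied to plants 2 to 18 cm tall (1- to 4-leaf stage); paddy species grown to 2-leaf stage under flooding. After 12 to 14 days in greenhouse, visual rating versus untreated controls on 0–100 scale (0 no effect, 100 complete control).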

[5] = system: rice; experiment: Test B flooded paddy test; assay type: in vivo, Oryza sativa; details: 1000 g ai/ha, scale 0 to 100 (0 no effect, 100 complete control)
In short: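 Plants grow to 1- to 4-leaf stage (2–18 cm) for postemergence spraying, or to 2-leaf stage for the paddy test. Formulated compound is applied. Greenhouse holding lasts 13–15 days. Response is scored visually relative to controls, 0 no effect to 100 complete control; a dash means no result.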

[6] = system: ducksalad; experiment: Test C flooded paddy test; assay type: in vivo, Heteranthera limosa; details: for Plant response rating, Ducksalad: 500 g ai/ha, visual rating after 12 to 14 days
[7] = system: velvetleaf; experiment: Test B pre-/postemergence herbicide test; assay type: in vivo, Abutilon theophrasti; details: for Plant response rating (0 to 100 scale), Velvetleaf: 0 is no effect, 100 is complete control, preemergence; for Velvetleaf plant response rating: scale 0 (no effect) to 100 (complete control)
In short: as §2

[8] = system: small flower umbrella sedge; experiment: Test B flooded paddy test; assay type: in vivo, Cyperus difformis; details: 1000 g ai/ha, scale 0 to 100 (0 no effect, 100 complete control)
In short: as §3

[9] = system: ducksalad; experiment: Test B flooded paddy test; assay type: in vivo, Heteranthera limosa; details: 1000 g ai/ha, scale 0 to 100 (0 no effect, 100 complete control)
In short: as §3

[10] = system: barnyardgrass; experiment: Test B flooded paddy test; assay type: in vivo, Echinochloa crus-galli; details: 1000 g ai/ha, scale 0 to 100 (0 no effect, 100 complete control)
In short: as §3

[11] = system: morningglory; experiment: Test B pre-/postemergence herbicide test; assay type: in vivo, Ipomoea coccinea; details: for Plant response rating (0 to 100 scale), Morningglory: 0 is no effect, 100 is complete control, preemergence; for Morningglory plant response rating: scale 0 (no effect) to 100 (complete control)
In short: as §1

[12] = system: giant foxtail; experiment: Test B pre-/postemergence herbicide test; assay type: in vivo, Setaria faberi; details: for Plant response rating (0 to 100 scale), Foxtail, Giant: 0 is no effect, preemergence
In short: as §2

[13] = system: corn; experiment: Test B pre-/postemergence herbicide test; assay type: in vivo, Zea mays; details: for Plant response rating (0 to 100 scale), Corn: 0 is no effect, preemergence
In short: as §2

[14] = system: pigweed; experiment: Test B pre-/postemergence herbicide test; assay type: in vivo, Amaranthus retroflexus; details: for Plant response rating (0 to 100 scale), Pigweed: 0 is no effect, 100 is complete control, preemergence; for Pigweed plant response rating: scale 0 (no effect) to 100 (complete control)
In short: as §2

[15] = system: cocklebur; experiment: Test B pre-/postemergence herbicide test; assay type: in vivo, Xanthium strumarium; details: for Plant response rating (0 to 100 scale), Cocklebur: 0 is no effect, preemergence
In short: as §1

[16] = system: smallflower umbrella sedge; experiment: Test C flooded paddy test; assay type: in vivo, Cyperus difformis; details: for Plant response rating, Sedge, Umbrella: 500 g ai/ha, visual rating after 12 to 14 days
[17] = system: blackgrass; experiment: Test B postemergence herbicide test; assay type: in vivo, Alopecurus myosuroides
In short: as §3

[18] = system: barnyardgrass; experiment: Test C flooded paddy test; assay type: in vivo, Echinochloa crus-galli; details: for Plant response rating, Barnyardgrass: 500 g ai/ha, visual rating after 12 to 14 days
In short: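 Injury scored visually against controls on a 0 (no effect) to 100 (complete control) scale, 12 to 14 days after treatment in greenhouse. Flooded paddy plants treated at 2-leaf stage; postemergence plants at 1- to 4-leaf stage, 2 to 18 cm tall.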

[19] = system: Surinam grass; experiment: Test B pre-/postemergence herbicide test; assay type: in vivo, Urochloa decumbens; details: for Plant response rating (0 to 100 scale), Surinam Grass: 0 is no effect, 100 is complete control, preemergence; for Surinam Grass plant response rating: scale 0 (no effect) to 100 (complete control)
In short: as §2

[20] = system: lambsquarters; experiment: Test B pre-/postemergence herbicide test; assay type: in vivo, Chenopodium album; details: for Plant response rating (0 to 100 scale), Lambsquarters: 0 is no effect, 100 is complete control, preemergence; for Lambsquarters plant response rating: scale 0 (no effect) to 100 (complete control)
In short: as §2

[21] = system: wild oat; experiment: Test B postemergence herbicide test; assay type: in vivo, Avena fatua; details: scale 0 (no effect) to 100 (complete control)
In short: as §3

[22] = 125 g ai/ha, 100 is complete control
[23] = 125 g ai/ha, visual rating, scale 0 (no effect) to 100 (complete control), postemergence
[24] = postemergence, 500 g ai/ha, scale 0 to 100, 0 is no effect, 100 is complete control
[25] = 500 g ai/ha, scale 0 to 100, 0 no effect, 100 complete control, preemergence
[26] = Postemergence, 500 g ai/ha, scale 0 (no effect) to 100 (complete control)
[27] = 125 g ai/ha, scale 0 to 100 (0 no effect, 100 complete control)
[28] = 250 g ai/ha, scale of 0 to 100, 0 is no effect, 100 is complete control
[29] = scale 0 to 100 (0 no effect, 100 complete control)
[30] = 125 g ai/ha, visual rating, postemergence
[31] = 62 g ai/ha, scale 0 to 100 (0 no effect, 100 complete control)

CCc1nn(C(C)(C)C)nc1C(=O)Nc1cc(C(=O)N(C)CC)ccc1F [Compound 388]
Plant response rating (0 to 100 scale), Barnyardgrass [1, 22]: 50 | Barnyardgrass plant response rating [1, 23]: 0 | Barnyardgrass plant response rating [1, 24]: 10 | Plant response rating (0 to 100 scale), Crabgrass, Large [2, 22]: 80 | Crabgrass, Large plant response rating [2, 23]: 20 | Crabgrass, Large plant response rating [2, 24]: 20 | Wheat plant response rating [3, 23]: 0 | Wheat plant response rating [3, 25]: 90 | Wheat plant response rating [3, 26]: 10 | Rice plant response rating ([4]; 62 g ai/ha, scale 0 to 100): 15 | Rice plant response rating [4, 27]: 55 | Rice plant response rating [4, 28]: 65 | Plant response rating, Rice [4, 29]: 70 | Rice plant response rating [5]: 70 | Ducksalad plant response rating ([6]; 62 g ai/ha, scale 0 to 100): 0 | Ducksalad plant response rating [6, 27]: 0 | Ducksalad plant response rating [6, 28]: 45 | Plant response rating, Ducksalad [6, 29]: 80 | Plant response rating (0 to 100 scale), Velvetleaf ([7]; 125 g ai/ha): 10 | Velvetleaf plant response rating [7, 30]: 20 | Velvetleaf plant response rating ([7]; Postemergence, 500 g ai/ha): 40 | Sedge, Umbrella plant response rating [8]: 70 | Ducksalad plant response rating [9]: 80 | Barnyardgrass plant response rating [10]: 70 | Plant response rating (0 to 100 scale), Morningglory ([11]; 125 g ai/ha): 0 | Morningglory plant response rating [11, 30]: 10 | Morningglory plant response rating ([11]; Postemergence, 500 g ai/ha): 50 | Plant response rating (0 to 100 scale), Foxtail, Giant [12, 22]: 20 | Foxtail, Giant plant response rating [12, 23]: 10 | Foxtail, Giant plant response rating [12, 24]: 30 | Plant response rating (0 to 100 scale), Corn [13, 22]: 30 | Corn plant response rating [13, 23]: 10 | Corn plant response rating [13, 24]: 20 | Plant response rating (0 to 100 scale), Pigweed ([14]; 125 g ai/ha): 80 | Pigweed plant response rating [14, 30]: 40 | Pigweed plant response rating ([14]; Postemergence, 500 g ai/ha): 50 | Plant response rating (0 to 100 scale), Cocklebur [15, 22]: 0 | Cocklebur plant response rating [15, 23]: 10 | Cocklebur plant response rating [15, 24]: 20 | Sedge, Umbrella plant response rating ([16]; 62 g ai/ha, scale 0 to 100): 65 | Sedge, Umbrella plant response rating [16, 27]: 70 | Sedge, Umbrella plant response rating [16, 28]: 75 | Plant response rating, Sedge, Umbrella [16, 29]: 80 | Blackgrass plant response rating [17, 23]: 0 | Blackgrass plant response rating [17, 24]: 20 | Barnyardgrass plant response rating [18, 31]: 0 | Barnyardgrass plant response rating [18, 27]: 10 | Barnyardgrass plant response rating [18, 28]: 35 | Plant response rating, Barnyardgrass [18, 29]: 65 | Plant response rating (0 to 100 scale), Surinam Grass ([19]; 125 g ai/ha): 20 | Surinam Grass plant response rating [19, 30]: 10 | Surinam Grass plant response rating ([19]; Postemergence, 500 g ai/ha): 20 | Plant response rating (0 to 100 scale), Lambsquarters ([20]; 125 g ai/ha): 90 | Lambsquarters plant response rating [20, 30]: 60 | Lambsquarters plant response rating ([20]; Postemergence, 500 g ai/ha): 70 | Oat, Wild plant response rating [21, 30]: 0 | Oat, Wild plant response rating ([21]; Postemergence, 500 g ai/ha): 10

CCNC(=O)c1cccc(NC(=O)c2nn(C(C)C)nc2C)c1 [Compound 405]
Plant response rating (0 to 100 scale), Barnyardgrass [1, 22]: 10 | Barnyardgrass plant response rating [1, 23]: 10 | Barnyardgrass plant response rating [1, 26]: 10 | Plant response rating (0 to 100 scale), Crabgrass, Large [2, 22]: 30 | Crabgrass, Large plant response rating [2, 23]: 10 | Crabgrass, Large plant response rating [2, 26]: 20 | Wheat plant response rating [3, 23]: 0 | Wheat plant response rating [3, 25]: 20 | Wheat plant response rating [3, 26]: 0 | Rice plant response rating ([4]; 62 g ai/ha, scale 0 to 100): 0 | Rice plant response rating [4, 27]: 0 | Rice plant response rating [4, 28]: 0 | Plant response rating, Rice [4, 29]: 20 | Rice plant response rating [5]: 50 | Ducksalad plant response rating ([6]; 62 g ai/ha, scale 0 to 100): 0 | Ducksalad plant response rating [6, 27]: 0 | Ducksalad plant response rating [6, 28]: 20 | Plant response rating, Ducksalad [6, 29]: 30 | Plant response rating (0 to 100 scale), Velvetleaf ([7]; 125 g ai/ha): 0 | Velvetleaf plant response rating [7, 30]: 10 | Velvetleaf plant response rating ([7]; Postemergence, 500 g ai/ha): 30 | Sedge, Umbrella plant response rating [8]: 90 | Ducksalad plant response rating [9]: 80 | Barnyardgrass plant response rating [10]: 40 | Plant response rating (0 to 100 scale), Morningglory ([11]; 125 g ai/ha): 30 | Morningglory plant response rating [11, 30]: 20 | Morningglory plant response rating ([11]; Postemergence, 500 g ai/ha): 60 | Plant response rating (0 to 100 scale), Foxtail, Giant [12, 22]: 0 | Foxtail, Giant plant response rating [12, 23]: 0 | Foxtail, Giant plant response rating [12, 26]: 20 | Plant response rating (0 to 100 scale), Corn [13, 22]: 0 | Corn plant response rating [13, 23]: 10 | Corn plant response rating [13, 26]: 10 | Plant response rating (0 to 100 scale), Pigweed ([14]; 125 g ai/ha): 10 | Pigweed plant response rating [14, 30]: 30 | Pigweed plant response rating ([14]; Postemergence, 500 g ai/ha): 50 | Plant response rating (0 to 100 scale), Cocklebur [15, 22]: 0 | Cocklebur plant response rating [15, 23]: 10 | Cocklebur plant response rating [15, 26]: 20 | Sedge, Umbrella plant response rating ([16]; 62 g ai/ha, scale 0 to 100): 40 | Sedge, Umbrella plant response rating [16, 27]: 50 | Sedge, Umbrella plant response rating [16, 28]: 70 | Plant response rating, Sedge, Umbrella [16, 29]: 70 | Blackgrass plant response rating [17, 23]: 0 | Blackgrass plant response rating [17, 26]: 10 | Barnyardgrass plant response rating [18, 31]: 0 | Barnyardgrass plant response rating [18, 27]: 0 | Barnyardgrass plant response rating [18, 28]: 0 | Plant response rating, Barnyardgrass [18, 29]: 20 | Plant response rating (0 to 100 scale), Surinam Grass ([19]; 125 g ai/ha): 0 | Surinam Grass plant response rating [19, 30]: 0 | Surinam Grass plant response rating ([19]; Postemergence, 500 g ai/ha): 10 | Plant response rating (0 to 100 scale), Lambsquarters ([20]; 125 g ai/ha): 70 | Lambsquarters plant response rating [20, 30]: 50 | Lambsquarters plant response rating ([20]; Postemergence, 500 g ai/ha): 70 | Oat, Wild plant response rating [21, 30]: 0 | Oat, Wild plant response rating ([21]; Postemergence, 500 g ai/ha): 10

— patent US20060069132A1, “Azolecarboxamide herbicides” (priority 2004, published 2006)
